pIC50: −log10 of the molar value. Where two headings read alike, the source gives them in different places.
Legend:
[1] = system: U87MG pLVX-IDH2 R140Q-neo cells; test: U87MG pLVX-IDH2 R140Q-neo cell based assay, 2-HG by LC-MS
[2] = system: Neurosphere cells (TS603); test: Cellular assay for IDH1m R132H inhibitors, 2-HG by LC-MS in neurosphere cells (TS603); type: cell-based; conditions: 2-HG in media at 48 hours
Description: Cellular Assay for IDH1m R132H Inhibitors.
The following describes the experimental procedures that can be used to obtain data in column 4 of Table 5.
Neurosphere cells (TS603) are grown at 37 C in 5% CO2 in Stem Cell Technologies NeuroCult™ NS-A media supplemented with 1% Primocin, 1% Normocin, 0.0002% Heparin, 20 ng/mL EGF and 10 ng/mL bFGF. Cells are harvested, pelleted and resuspended in Accumax for cell dissociation and counting. Cells are counted and then resuspended in NeuroCult media with 2× heparin, EGF and bFGF at 4 million cells/10 mL media. 100 μl of cell solution are plated in each well of a 96 well with the exception of columns 1 and 12. Columns 1 and 12 contain 200 μL PBS. Compound dose responses are set up at a 2× concentration in Neurocult media without heparin, EGF and bFGF. The final concentration of DMSO is 0.25%. DMSO only control wells are plated in row H. The plates are then placed in the incubator for 48 hours. At 48 hours, 100 μl of media is removed from each well and analyzed by LC-MS for 2-HG concentrations. The cell plate is placed back in the incubator for another 24 hours. At 72 hours post compound addition, 10 mL/plate of Promega Cell Titer Glo reagent is thawed and mixed. The cell plate is removed from the incubator and allowed to equilibrate to room temperature. Then 100 μl of Promega Cell Titer Glo reagent is added to each well of media. The cell plate is then placed on an orbital shaker for 10 minutes and then allowed to sit at room temperature for 20 minutes. The plate is then read for luminescence with an integration time of 500 ms.

IDH2 R140Q = IDH2 R140Q (Homo sapiens (Human), UniProt P48735, R140Q); test: In vitro assay for IDH2m R140Q inhibitors, cofactor depletion assay; type: biochemical; conditions: IDH2 R140Q enzyme
Excerpt: The following describes the experimental procedures used to obtain data on column 7 of Table 4.
The reaction is terminated by the addition of a second enzyme, diaphorase, and a corresponding substrate, resazurin. Diaphorase reduces resazurin to the highly fluorescent resorufin with the concomitant oxidation of NADPH to NADP, both halting the IDH2 reaction by depleting the available cofactor pool and facilitating quantitation of the amount of cofactor remaining after a specific time period through quantitative production of an easily detected fluorophore.
The test compound is then incubated for one hour at room temperature with the enzyme; before starting the IDH2 reaction with the addition of 10 μl of substrate mix containing 4 μM NADPH and 1.6 mM α-KG in the buffer described above. After a further 16 hours of incubation at room temperature, the reaction is halted and the remaining NADPH measured through conversion of resazurin to resorufin by the addition of 25 μl Stop Mix (36 μg/ml diaphorase enzyme and 60 μM resazurin; in buffer).

[3] = biological target: IDH1 wt/IDH1 R132H heterodimer (Homo sapiens (Human), UniProt O75874, R132H); test: In vitro assay for IDH1m R132H inhibitors, IDH1 wt/IDH1 R132H heterodimer, NADPH depletion (diaphorase/resazurin); type: biochemical
Description: The following describes the experimental procedures that can be used to obtain data on columns 2 and 4 of Table 4 and column 2 of Table 5.
In the primary reaction, the reduction of α-KG acid to 2-HG is accompanied by a concomitant oxidation of NADPH to NADP. The amount of NADPH remaining at the end of the reaction time is measured in a secondary diaphorase/resazurin reaction in which the NADPH is consumed in a 1:1 molar ratio with the conversion of resazurin to the highly fluorescent resorufin.
The mixture of compound, enzyme, and cofactor is pre-incubated at room temperature for 1 hr prior to the addition of alpha-ketoglutarate. To perform the secondary reaction, 10 uL of 1× buffer containing 36 μg/ml diaphorase and […] resazurin is added to the primary reaction and incubated for a further 5 minutes at 25° C. […] Compounds or compound dilutions are prepared in 100% DMSO concentration and diluted 1:50 into the final reaction. […] IC50s are determined.
IDH1 or IDH2 wildtype (wt) and mutant heterodimers are expressed and purified by methods known in the art. […] Co-expression of IDH1wt-his and IDH1R132C-flag is carried out in sf9 insect cells. Cells (25 g) are resuspended in 250 ml of 50 mM Tirs, 500 mM NaCl, pH7.4, at 4° C. with stirring. Cells are disrupted with 4 passes through an M-Y110 Micro fluidizer (Microfluidics) set to 500 psi, and then centrifuged at 22,000 rcf for 20 min at 4° C. The supernatant is harvested and loaded at 15 cm/h on a Histrap FF 5*1 ml column (GE) which is equilibrated with 50 mM Tirs, 500 mM NaCl, pH7.4. Host cell contaminants are removed by washing the column with equilibration buffer followed by equilibration buffer containing 20 mM imidazole and 60 mM imidazole to baseline. IDH1wt-his homodimer and IDH1wt-his/IDH1R132C-flag are eluted by equilibration buffer containing 250 mM imidazole. Fractions eluted by 250 mM imidazole are pooled together and loaded at 15 cm/h onto a column pre-packed with 10 ml ANTI-FLAG® M2 Affinity Gel (Sigma), the column is equilibrated with 50 mM Tris, 500 mM NaCl, pH7.4. After washing with equilibration buffer, IDH1wt-his/IDH1R132C-flag heterodimer is eluted by equilibration buffer containing flag peptide (0.2 mg/ml). Aliquots of IDH1wt-his/IDH1R132C-flag are flash frozen in liquid N2 and stored at −80° C. Same conditions are used for the purification of IDH1wt-his/IDH1R132H-flag.

[4] = IDH1 wt/IDH1 R132H heterodimer, 300 μM NADP (saturated), read-out: IDH1 wt/R132H NADPH/NADP IC50 saturated
[5] = IDH1 wt/R132H heterodimer, NADPH/NADP, not saturated, read-out: IDH1 wt/R132H NADPH/NADP IC50 not saturated

IDH2 R140Q, sequence (P48735 40-452 R140Q): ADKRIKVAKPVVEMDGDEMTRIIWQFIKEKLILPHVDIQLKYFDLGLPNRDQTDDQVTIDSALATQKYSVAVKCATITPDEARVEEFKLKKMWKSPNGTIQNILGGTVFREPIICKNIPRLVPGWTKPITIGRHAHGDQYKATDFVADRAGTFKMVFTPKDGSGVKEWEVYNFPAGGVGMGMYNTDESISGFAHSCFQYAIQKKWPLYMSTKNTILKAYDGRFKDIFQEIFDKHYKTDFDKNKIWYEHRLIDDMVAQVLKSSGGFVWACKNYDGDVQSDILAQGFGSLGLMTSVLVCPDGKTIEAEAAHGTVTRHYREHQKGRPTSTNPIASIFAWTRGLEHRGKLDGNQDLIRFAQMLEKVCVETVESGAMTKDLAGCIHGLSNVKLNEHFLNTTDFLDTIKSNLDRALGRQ
IDH1 wt/IDH1 R132H heterodimer, sequence (O75874 whole entry R132H): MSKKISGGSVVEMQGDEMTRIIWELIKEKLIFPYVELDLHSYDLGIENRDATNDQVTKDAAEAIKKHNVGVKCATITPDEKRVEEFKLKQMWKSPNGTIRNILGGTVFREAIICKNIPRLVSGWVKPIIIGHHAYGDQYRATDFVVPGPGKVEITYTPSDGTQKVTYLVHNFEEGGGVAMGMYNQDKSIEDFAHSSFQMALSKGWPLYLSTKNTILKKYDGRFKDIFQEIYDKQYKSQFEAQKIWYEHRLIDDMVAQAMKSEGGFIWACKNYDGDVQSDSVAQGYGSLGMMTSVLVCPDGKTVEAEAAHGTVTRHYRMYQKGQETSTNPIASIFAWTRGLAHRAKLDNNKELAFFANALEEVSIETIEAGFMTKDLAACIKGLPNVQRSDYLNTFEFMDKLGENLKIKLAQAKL
IDH1 wt/IDH1 R132H heterodimer, sequence (O75874 whole entry, stated change not applied): as the sequence (O75874 whole entry R132H) above, with H132R counted along it

SMILES	pIC50 ([1]; Homo sapiens, U-87 MG)	pIC50 [2]	pIC50 (IDH2 R140Q)	pIC50 [3, 4]	pIC50 [3, 5]	pIC50 [1]
C[C@H](Nc1nc(Nc2ccnc(C(F)(F)F)c2)nc(-n2ccc(C(F)(F)F)n2)n1)C(F)(F)F [Compound 356]	> 7.30	> 7.30	> 7.30	> 7.30		
N#CC1(c2cc(Nc3nc(N[C@H]4CCC(F)(F)C4)nc(-c4nccc(C(F)(F)F)n4)n3)ccn2)CC1 [Compound 376]	> 7.30		> 7.30	< 6.00		
C[C@@H](Nc1nc(Nc2ccnc(C3(C#N)CC3)c2)nc(-c2cccc(C(F)(F)F)n2)n1)C(F)(F)F [Compound 352]	> 7.30	> 7.30	> 7.30	> 7.30		
Fc1cc(F)cc(Nc2nc(NC3CCC(F)(F)C3)nc(-c3nc(F)ccc3F)n2)c1 (stereo not drawn) [Compound 139]	> 7.30	> 7.30	> 7.30		> 7.30	
N#CC1(c2cc(Nc3nc(NC4CCC(F)(F)CC4)nc(-c4cncc(C(F)F)n4)n3)ccn2)CC1 [Compound 338]		> 7.30		7.00 to 7.30		
FC1(F)CCC(Nc2nc(NC3CCN(c4ccccc4)C3)nc(-c3cccc(C(F)(F)F)n3)n2)C1 (stereo not drawn) [Compound 219]		> 7.30			> 7.30	
C[C@@H](Nc1nc(Nc2ccnc(C3(C#N)CC3)c2)nc(-c2cncc(C(F)F)n2)n1)C(F)(F)F [Compound 336]		> 7.30		> 7.30		
C[C@@H](Nc1nc(N[C@H](C)C(F)(F)F)nc(-c2cccc(C(F)(F)F)n2)n1)C(F)(F)F [Compound 335]		> 7.30		> 7.30		
C[C@@H](Nc1nc(NC2CCc3ccccc32)nc(-c2cccc(C(F)(F)F)n2)n1)C1CC1 (stereo partly drawn) [Compound 135]		> 7.30			> 7.30	
CC(C)(O)CNc1nc(Nc2cc(F)cc(C#N)c2)nc(-c2cccc(C(C)(F)F)n2)n1 [Compound 398]	> 7.30		> 7.30	6.00 to 7.00		
FC1(F)CC[C@H](Nc2nc(Nc3ccnc(C(F)(F)F)c3)nc(-c3ccnc(C(F)(F)F)n3)n2)C1 [Compound 343]	> 7.30		> 7.30	6.00 to 7.00		
C[C@@H](Nc1nc(N[C@H](C)C2CC2)nc(-c2cncc(Cl)c2)n1)C1CC1 [Compound 278]	< 6.00		< 6.00		6.00 to 7.00	
C[C@@H](Nc1nc(N[C@H](C)C2CC2)nc(-c2cccc(N)n2)n1)C1CC1 [Compound 285]	< 6.00		< 6.00		6.00 to 7.00	
FC1(F)CCC(Nc2nc(NC3CCC(F)(F)CC3)nc(-c3cccc(C4CC4)n3)n2)CC1 [Compound 305]		6.00 to 7.00			< 6.00	
FC1(F)CC(Nc2nc(NC3CC(F)(F)C3)nc(-c3cccc(OC(F)(F)F)n3)n2)C1 [Compound 277]	7.00 to 7.30		7.00 to 7.30		6.00 to 7.00	
C[C@@H](Nc1nc(N[C@H](C)C2CC2)nc(-c2cccc3[nH]ccc23)n1)C1CC1 [Compound 396]			7.00 to 7.30	< 6.00		7.00 to 7.30
FC1(F)CCC(Nc2nc(NC3Cc4cc(Br)cc(Br)c4C3)nc(-c3cccc(C(F)(F)F)n3)n2)C1 (stereo not drawn) [Compound 254]		7.00 to 7.30			7.00 to 7.30	
CC(Cc1ccccc1)Nc1nc(N[C@H](C)C2CC2)nc(-c2cccc(C(F)(F)F)n2)n1 (stereo partly drawn) [Compound 206]		> 7.30			> 7.30	
FC1(F)CCC(Nc2nc(NC3CCC(F)(F)CC3)nc(-c3cc(C(F)(F)F)ccn3)n2)CC1 [Compound 318]		≤ 6.00			< 6.00	
FC1(F)CCC(Nc2nc(NC3CC(c4ccccc4)C3)nc(-c3cccc(C(F)(F)F)n3)n2)C1 (stereo not drawn) [Compound 208]		> 7.30			> 7.30	
CC(C)CNc1nc(NCC(C)C)nc(-c2cccc(N)n2)n1 [Compound 74, 6-(6-aminopyridin-2-yl)-N^2,N^4-diisobutyl-1,3,5-triazine-2,4-diamine]	7.00 to 7.30		> 7.30			
C[C@H](Nc1nc(Nc2ccnc(C3(C#N)CC3)c2)nc(-c2cncc(C(F)F)n2)n1)C(F)(F)F [Compound 337]		> 7.30		> 7.30		
CC(C)(O)CNc1nc(Nc2ccnc(C#N)c2)nc(-c2cccc(C(F)(F)F)n2)n1 [Compound 288]	6.00 to 7.00		6.00 to 7.00		6.00 to 7.00	
CC(C)CNc1nc(NC2CCOCC2)nc(-c2cccc(C(F)(F)F)n2)n1 [Compound 75]	> 7.30		7.00 to 7.30			
FC1(F)CCC(Nc2nc(NC3Cc4ccc(Br)cc4C3)nc(-c3cccc(C(F)(F)F)n3)n2)C1 (stereo not drawn) [Compound 225]		> 7.30			> 7.30	
CC(C)(O)CNc1nc(Nc2cc(F)cc(C(F)(F)F)c2)nc(-c2cccc(C(C)(F)F)n2)n1 [Compound 397]	> 7.30		> 7.30	6.00 to 7.00		
CC(C)(O)CNc1nc(Nc2ccnc(C3(C#N)CC3)c2)nc(-c2cccc(C(F)(F)F)n2)n1 [Compound 259]	> 7.30		> 7.30		6.00 to 7.00	
CC(C)(C)CNc1nc(NCC(C)(C)C)nc(-c2cccc(N)n2)n1 [Compound 73, 6-(6-aminopyridin-2-yl)-N^2,N^4-dineopentyl-1,3,5-triazine-2,4-diamine]	7.00 to 7.30		> 7.30			

— patent US10028961B2, “Therapeutically active compounds and their methods of use” (AGIOS PHARMACEUTICALS, INC., priority 2013, dated 2018)
